Laboratory results from patent US20120196935A1, “METHODS FOR DETECTING AUTODIGESTION” (THE REGENTS OF THE UNIVERSITY OF CALIFORNIA, priority 2009, published 2012).

System: experimental rats in hemorrhagic shock
Test: hemorrhagic shock in rats with blockage of digestive enzymes in the lumen of the intestine
Assay type: in vivo
Conditions: hemorrhagic shock (two hour reduction of blood pressure), inhibitor infused into the lumen of the intestine
Excerpt: Fetid organic material was released from animals subject to autodigestion by pancreatic enzymes, but not from those that were not subject to autodigestion. Non-surviving animals uniformly released fetid organic material, while survivors produced dramatically lower levels. For example, animals with blockage of digestive enzymes in the lumen of the intestine (by infusion of pancreatic serine protease inhibitors, such as cyclokapron) in hemorrhagic shock had lower levels of substances such as putrescine, cadaverine, methional, and transthyretin.

NC[C@H]1CC[C@H](C(=O)O)CC1 [cyclokapron]
levels of substances such as putrescine, cadaverine, methional, and transthyretin: lower levels
